Values of other authors as cited in patent publication US5463127A, “Process for preparation of halohydroxypropyl-trialkylammonium halides” (The Dow Chemical Company, priority 1995, dated 1995).
Read-outs that look alike come from different tables or passages of the source.

Conditions: aqueous solution

CN(C)C [Trimethylamine, trimethylamine]
pKa of Trimethylamine (0 °C.): 10.355
pKa of Trimethylamine (10 °C.): 10.128
pKa of Trimethylamine (20 °C.): 9.907
pKa of Trimethylamine (30 °C.): 9.692
pKa of Trimethylamine (40 °C.): 9.477
pKa of Trimethylamine (50 °C.): 9.270
